Where two headings read alike, the source gives them in different places.
How the values were obtained:
F. pringlei PEPC = target: T1, F. pringlei PEPC (Flaveria pringlei, UniProt Q01647); test: PEPC coupled spectrophotometric assay, C3 PEPC; assay type: biochemical
T1 construct: the full-length ppcA gene of PEPC from F. trinervia (EMBL-Bank X61304) and F. pringlei (EMBL-Bank Z48966) were cloned in pETEV16b; made in house; host or cells: Escherichia coli BL21-Gold(DE3)
T1 sequence (Q01647 1-967): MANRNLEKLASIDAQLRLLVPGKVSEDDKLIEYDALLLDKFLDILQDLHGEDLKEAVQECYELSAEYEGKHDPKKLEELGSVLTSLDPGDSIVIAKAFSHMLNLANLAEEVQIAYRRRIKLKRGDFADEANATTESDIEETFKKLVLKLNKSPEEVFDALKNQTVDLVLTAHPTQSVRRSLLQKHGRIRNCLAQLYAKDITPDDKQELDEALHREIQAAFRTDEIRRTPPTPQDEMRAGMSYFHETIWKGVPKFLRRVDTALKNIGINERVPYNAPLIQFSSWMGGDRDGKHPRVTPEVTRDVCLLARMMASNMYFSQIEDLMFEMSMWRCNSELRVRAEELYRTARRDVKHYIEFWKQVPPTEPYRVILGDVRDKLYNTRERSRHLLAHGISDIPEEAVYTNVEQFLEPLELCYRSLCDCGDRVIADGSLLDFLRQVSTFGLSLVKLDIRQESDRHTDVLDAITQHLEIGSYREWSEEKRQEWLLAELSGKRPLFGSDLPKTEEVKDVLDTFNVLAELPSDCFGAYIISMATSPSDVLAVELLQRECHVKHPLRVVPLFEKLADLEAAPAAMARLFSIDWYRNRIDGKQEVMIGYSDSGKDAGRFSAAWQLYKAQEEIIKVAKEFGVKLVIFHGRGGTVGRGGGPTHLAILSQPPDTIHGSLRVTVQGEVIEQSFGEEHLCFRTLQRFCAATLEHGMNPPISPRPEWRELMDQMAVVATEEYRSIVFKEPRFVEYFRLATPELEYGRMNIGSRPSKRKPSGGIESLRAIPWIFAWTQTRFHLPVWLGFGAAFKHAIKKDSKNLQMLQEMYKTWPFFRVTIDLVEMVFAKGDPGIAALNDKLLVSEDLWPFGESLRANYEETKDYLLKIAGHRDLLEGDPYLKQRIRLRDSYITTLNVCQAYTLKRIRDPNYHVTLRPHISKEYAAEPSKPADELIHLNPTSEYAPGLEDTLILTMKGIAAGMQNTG
Method: The IC50 values of small molecule compounds on F. pringlei and F. trinervia PEPCs were determined using PEPC coupled spectrophotometric assay. The amount of NADH oxidized by NADH-malate dehydrogenase was measured by the decrease in absorbance at 340 nm in a Beckman DU-800 spectrophotometer, thus the value is in proportion to the corresponding substrate conversion of the enzyme. The reaction mixture included the PEPC enzymes (0.05 U), NADH (150 μM), malate dehydrogenase (2 U) and different concentration of compounds in the buffer containing 50 mM HEPES/KOH pH 7.5, 10 mM MgCl2, 10 mM KHCO3 in a final volume of 600 μl at 25 °C. The reactions were started by adding two folds of the Km value of PEP for each enzyme. The data were analyzed using GraFit (Erithacus Software, UK).

[1] = system: Pseudomonas putida KT2440; test: Bacterial growth in microscale cultivation, P. putida; assay type: cell-based; conditions: relative to control; for activity at 0.3 µM / activity at 3 µM / activity at 30 µM / activity at 0.1 µM / activity at 1 µM / activity at 10 µM: Pseudomonas putida
Method: The following bacteria were cultivated in the presence of trans-chalcone derived inhibitors: Corynebacterium glutamicum ATCC13032[43], Escherichia coli K-12 MG1655[44], Pseudomonas putida KT2440[45], and Bacillus subtilis 168[46]. The growth of these bacteria was monitored in flower-well plates shaken at 1200 rpm as backscatter at 620 nm (gain 20) using a BioLector® microscale cultivation system (m2p labs, Baesweiler, Germany). For further experimental details please refer to the Supplementary Information.
medium or the appropriate minimal medium and shaken at 140 rpm overnight. For inoculation of
the main culture, cells equivalent to an optical density at 600 nm of 0.5 (C. glutamicum, E. coli,
and P. putida) or 0.25 (B. subtilis) in 800 µL medium were washed and resuspended in fresh
media. Inhibitor substances were dissolved in DMSO and added to the media to a final
Since the least polar trans-chalcone and 2’-hydroxychalcone precipitated in the growth media at
the highest concentrations, the maximal concentration of these compounds was reduced to 400
µM and 100 µM, respectively. The final backscatter at 620 nm, the growth rate (h-1), and the
duration of the lag phase of all cultures were determined in a BioLector microscale cultivation
system in comparison to negative controls supplemented with the solvent DMSO. A longer lag

Question: Which results are given for `O=C(/C=C/c1ccc(O)c(O)c1)c1c(O)cc(O)cc1O` [Compound 11, 2′,4′,6′,3,4-Pentahydroxy-chalcone]?
Answer: IC50 (F. pringlei PEPC; read-out: IC50 F. pringlei PEPC): 8.2 ± 0.3 µM; activity at 0.3 µM ([1]; KT2440, complex medium, 0.3 µM, read-out: Final Backscatter): 92.6%; activity at 0.3 µM ([1]; KT2440, complex medium, 0.3 µM, read-out: Growth rate): 108%; activity at 3 µM ([1]; KT2440, complex medium, 3 µM, read-out: Final Backscatter): 96.8%; activity at 3 µM ([1]; KT2440, complex medium, 3 µM, read-out: Growth rate): 106%; activity at 30 µM ([1]; KT2440, complex medium, 30 µM, read-out: Final Backscatter): 92.5%; activity at 30 µM ([1]; KT2440, complex medium, 30 µM, read-out: Growth rate): 105%; activity at 0.3 µM ([1]; KT2440, minimal medium, 0.3 µM, read-out: Final Backscatter): 93.9%; activity at 0.3 µM ([1]; KT2440, minimal medium, 0.3 µM, read-out: Growth rate): 96.8%; activity at 3 µM ([1]; KT2440, minimal medium, 3 µM, read-out: Final Backscatter): 94.9%; activity at 3 µM ([1]; KT2440, minimal medium, 3 µM, read-out: Growth rate): 98.7%; activity at 30 µM ([1]; KT2440, minimal medium, 30 µM, read-out: Final Backscatter): 99%; activity at 30 µM ([1]; KT2440, minimal medium, 30 µM, read-out: Growth rate): 95.2%; Lag Phase ([1]; complex medium, 0.3 µM): 95,5%; Lag Phase ([1]; complex medium, 3 µM): 97,5%; Lag Phase ([1]; complex medium, 30 µM): 97,0%; Lag Phase ([1]; minimal medium, 0.3 µM): 99,3%; Lag Phase ([1]; minimal medium, 3 µM): 98,9%; Lag Phase ([1]; minimal medium, 30 µM): 98,9%

Question: What does the source list for `O=C(/C=C/c1ccc(O)c(O)c1)c1ccc(O)c(O)c1O` [Compound 12, 2′,3′,4′,3,4-Pentahydroxy-chalcone]?
Answer: IC50 (F. pringlei PEPC; IC50 F. pringlei PEPC): 26.8 ± 3.5 µM; activity at 0.1 µM ([1]; KT2440, complex medium, 0.1 µM, read-out: Final Backscatter): 97.8%; activity at 0.1 µM ([1]; KT2440, complex medium, 0.1 µM, read-out: Growth rate): 104%; activity at 1 µM ([1]; KT2440, complex medium, 1 µM, read-out: Final Backscatter): 98.2%; activity at 1 µM ([1]; KT2440, complex medium, 1 µM, read-out: Growth rate): 103%; activity at 10 µM ([1]; KT2440, complex medium, 10 µM, read-out: Final Backscatter): 98.6%; activity at 10 µM ([1]; KT2440, complex medium, 10 µM, read-out: Growth rate): 99.7%; activity at 0.1 µM ([1]; KT2440, minimal medium, 0.1 µM, read-out: Final Backscatter): 92.5%; activity at 0.1 µM ([1]; KT2440, minimal medium, 0.1 µM, read-out: Growth rate): 105%; activity at 1 µM ([1]; KT2440, minimal medium, 1 µM, read-out: Final Backscatter): 93.6%; activity at 1 µM ([1]; KT2440, minimal medium, 1 µM, read-out: Growth rate): 104%; activity at 10 µM ([1]; KT2440, minimal medium, 10 µM, read-out: Final Backscatter): 99.3%; activity at 10 µM ([1]; KT2440, minimal medium, 10 µM, read-out: Growth rate): 100%; Lag Phase ([1]; complex medium, 0.1 µM): 103,3%; Lag Phase ([1]; complex medium, 1 µM): 103,9%; Lag Phase ([1]; complex medium, 10 µM): 105,9%; Lag Phase ([1]; minimal medium, 0.1 µM): 108,8%; Lag Phase ([1]; minimal medium, 1 µM): 106,1%; Lag Phase ([1]; minimal medium, 10 µM): 100,0%
